Results on 29 molecules are retold here after patent US20220235065A1 (Epizyme, Inc., priority 2016, published 2022).

Assay [1] deals with T1, recombinant purified human EHMT2 913-1193 (Homo sapiens, UniProt Q96KQ7).
T1 construct: Recombinant purified human EHMT2 913-1193 (55 μM) synthesized by Viva was used for all experiments; purchased Viva
T1 sequence (Q96KQ7 913-1193): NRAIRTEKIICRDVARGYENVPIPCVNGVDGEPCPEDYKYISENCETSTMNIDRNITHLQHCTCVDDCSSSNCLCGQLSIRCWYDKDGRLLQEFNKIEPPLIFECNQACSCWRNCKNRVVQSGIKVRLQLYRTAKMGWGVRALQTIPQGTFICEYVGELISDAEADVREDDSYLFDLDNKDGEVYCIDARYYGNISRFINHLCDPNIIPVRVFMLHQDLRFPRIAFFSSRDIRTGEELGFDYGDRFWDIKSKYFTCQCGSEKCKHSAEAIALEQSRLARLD
Briefly: EHMT2 enzyme assay on histone peptide substrate (3H-SAM Flashplate). To be noted: read-out: EHMT2 PEP (IC50 μM). In kind it is biochemical. The procedure: Recombinant purified human EHMT2 913-1193 (55 μM) synthesized by Viva was used for all experiments. Biotinylated histone peptides were synthesized by Biopeptide and HPLC-purified to >95% purity. Streptavidin Flashplates and seals were purchased from PerkinElmer and 384 Well V-bottom Polypropylene Plates were from Greiner. ^3H-labeled S-adenosylmethionine (3H-SAM) was obtained from American Radiolabeled Chemicals with a specific activity of 80 Ci/mmol. Unlabeled SAM and S-adenosylhomocysteine (SAH) were obtained from American Radiolabeled Chemicals and Sigma-Aldrich respectively. Flashplates were washed in a Biotek ELx-405 with 0.1% Tween. 384-well Flashplates and 96-well filter binding plates were read on a TopCount microplate reader (PerkinElmer). Compound serial dilutions were performed on a Freedom EVO (Tecan) and spotted into assay plates using a Thermo Scientific Matrix PlateMate (Thermo Scientific). Reagent cocktails were added by Multidrop Combi (Thermo Scientific).
General Procedure for EHMT2 Enzyme Assay on Histone Peptide Substrate.
10-point curves of test compounds were made on a Freedom EVO (Tecan) using serial 3-fold dilutions in DMSO, beginning at 2.5 mM (final top concentration of compound was 50 μM and the DMSO was 2%). A 1 μL aliquot of the inhibitor dilution series was spotted in a polypropylene 384-well V-bottom plate (Greiner) using a Thermo Scientific Matrix PlateMate (Thermo Scientific). The 100% inhibition control consisted of 1 mM final concentration of the product inhibitor S-adenosylhomocysteine (SAH, Sigma-Aldrich). Compounds were incubated for 30 minutes with 40 μL per well of 0.031 nM EHMT2 (recombinant purified human EHMT2 913-1193, Viva) in 1× assay buffer (20 mM Bicine [pH 7.5], 0.002% Tween 20, 0.005% Bovine Skin Gelatin and 1 mM TCEP). 10 μL per well of substrate mix comprising assay buffer, ^3H-SAM (3H-labeled S-adenosylmethionine, American Radiolabeled Chemicals, specific activity of 80 Ci/mmol), unlabeled SAM (American Radiolabeled Chemicals), and peptide representing histone H3 residues 1-15 containing C-terminal biotin (appended to a C-terminal amide-capped lysine, synthesized by Biopeptide and HPLC-purified to greater than 95% purity) were added to initiate the reaction (both substrates were present in the final reaction mixture at their respective Km values, an assay format referred to as “balanced conditions”). Reactions were incubated for 60 minutes at room temperature and quenched with 10 μL per well of 400 μM unlabeled SAM, then transferred to a 384-well streptavidin Flashplate (PerkinElmer) and washed in a Biotek ELx-405 well washer with 0.1% Tween after 60 minutes. 384-well Flashplates were read on a TopCount microplate reader (PerkinElmer).
IC50 curves were generated using triplicate wells per concentration of compound. The IC50 is the concentration of compound at which measured methylation is inhibited by 50% as interpolated from the dose response curves. IC50 values were calculated using a non-linear regression (variable slope-four parameter fit model) with by the following formula
where Top is fixed at 100% and Bottom is fixed to 0%, [I]=concentration of inhibitor, IC50=half maximal inhibitory concentration and n=Hill Slope.

In a further assay the target is T2, EHMT1 (Homo sapiens, UniProt Q9H9B1).
T2 sequence (Q9H9B1 1-1298): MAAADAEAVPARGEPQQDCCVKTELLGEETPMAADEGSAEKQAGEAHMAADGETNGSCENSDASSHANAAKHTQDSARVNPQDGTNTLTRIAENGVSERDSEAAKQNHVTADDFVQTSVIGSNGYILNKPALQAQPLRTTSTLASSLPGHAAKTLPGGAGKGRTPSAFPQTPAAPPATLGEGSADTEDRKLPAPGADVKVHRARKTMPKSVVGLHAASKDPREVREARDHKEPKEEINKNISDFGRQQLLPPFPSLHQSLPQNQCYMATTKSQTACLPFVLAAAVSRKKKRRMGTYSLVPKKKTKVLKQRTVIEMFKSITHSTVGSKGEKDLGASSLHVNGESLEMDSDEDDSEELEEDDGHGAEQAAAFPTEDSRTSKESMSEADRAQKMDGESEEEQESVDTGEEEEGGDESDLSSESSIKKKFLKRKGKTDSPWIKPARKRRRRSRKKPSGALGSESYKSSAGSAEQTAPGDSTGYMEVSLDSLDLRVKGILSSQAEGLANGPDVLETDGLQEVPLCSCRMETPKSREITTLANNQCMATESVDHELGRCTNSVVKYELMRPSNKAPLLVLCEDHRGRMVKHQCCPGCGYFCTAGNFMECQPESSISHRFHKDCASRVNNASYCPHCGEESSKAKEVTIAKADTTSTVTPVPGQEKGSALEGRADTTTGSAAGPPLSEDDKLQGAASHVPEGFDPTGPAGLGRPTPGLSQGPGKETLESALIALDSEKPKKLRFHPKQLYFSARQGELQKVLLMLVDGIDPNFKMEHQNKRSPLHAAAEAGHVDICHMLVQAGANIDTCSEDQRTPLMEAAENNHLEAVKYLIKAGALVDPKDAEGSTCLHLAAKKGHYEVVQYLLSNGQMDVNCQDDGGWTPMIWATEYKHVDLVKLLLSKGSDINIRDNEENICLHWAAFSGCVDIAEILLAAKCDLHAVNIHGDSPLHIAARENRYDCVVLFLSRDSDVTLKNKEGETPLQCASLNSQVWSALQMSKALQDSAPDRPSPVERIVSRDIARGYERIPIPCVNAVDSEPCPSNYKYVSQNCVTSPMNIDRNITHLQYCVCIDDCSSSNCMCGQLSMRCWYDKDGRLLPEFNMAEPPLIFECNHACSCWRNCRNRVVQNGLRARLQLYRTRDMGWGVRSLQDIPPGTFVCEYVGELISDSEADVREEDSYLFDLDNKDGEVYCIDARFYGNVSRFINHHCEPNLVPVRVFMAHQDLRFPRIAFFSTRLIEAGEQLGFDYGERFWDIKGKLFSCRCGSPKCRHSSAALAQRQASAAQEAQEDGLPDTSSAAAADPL
The assay is described as follows: EHMT1 PEP (EHMT1 peptide enzyme assay). In kind it is biochemical. Particulars: peptide substrate enzyme assay.

Each structure is given as a SMILES string. Structures can show the parent of a compound that is named as a salt.

For `CNc1cc(C)nc(Nc2ccc(OC)c(-c3cn4c(n3)CN(C)CC4)c2)n1` [Compound 6], the IC50 (in assay [1]; against EHMT1) was more than 10 µM each time.

Regarding `CNc1cc(C)nc(Nc2ccc(OC)c(-c3cn4c(n3)CNCC4)c2)n1` [Compound 7], the IC50 in assay [1] was in the range of 1 to 10 µM; against EHMT1, 0.1 to 1 µM.

For `CNc1cc(C)nc(Nc2ccc(OC)c(-c3nc4n(n3)CCNC4)c2)n1` [Compound 8, 2-N-(4-methoxy-3-[4H,5H,6H,7H-[1,2,4]triazolo[1,5-a]pyrazin-2-yl]phenyl)-4-N,6-dimethylpyrimidine-2,4-diamine hydrochloride], the values for the IC50 (in assay [1]; on EHMT1) were more than 10 µM and 1 to 10 µM, respectively.

As for `CNc1cc(C)nc(Nc2ccc(OC)c(-c3nc4n(n3)CCN(C)C4)c2)n1` [Compound 9], the half-maximal inhibitory concentration (IC50) (in assay [1]; against EHMT1) was more than 10 µM throughout.

Regarding `CNc1cc(C)nc(Nc2ccc(OC)c(-n3ncc4c3CCN(C)C4)c2)n1` [Compound 10], the 50% inhibitory concentration (IC50) (in assay [1]; against EHMT1) was 0.1 to 1 µM each time.

Regarding `CNc1cc(C)nc(Nc2ccc(OC)c(-c3nnc(C)[nH]3)c2)n1` [Compound 11], the IC50 (in assay [1]; on EHMT1) was more than 10 µM throughout.

Consider `CNc1cc(C)nc(Nc2ccc(OC)c(-c3cn[nH]c3)c2)n1` [Compound 12, 2-N-[4-methoxy-3-(1H-pyrazol-4-yl)phenyl]-4-N,6-dimethylpyrimidine-2,4-diamine], for which the half-maximal inhibitory concentration (IC50) (in assay [1]; at EHMT1) was more than 10 µM throughout.

Take `CNc1cc(C)nc(Nc2ccc(OC)c(-n3cc4ccccc4n3)c2)n1` [Compound 146]: the IC50 in assay [1] is more than 10 µM; against EHMT1, 0.1 to 1 µM.

In the case of `CNc1cc(C)nc(Nc2ccc(OC)c(-n3cc4cc(Br)ccc4n3)c2)n1` [Compound 148], the 50% inhibitory concentration (IC50) lay within 1 to 10 µM in assay [1] and 0.1 to 1 µM against EHMT1.

As to `CNc1cc(C)nc(Nc2ccc(OC)c(-n3cc4cncc(C)c4n3)c2)n1` [Compound 151], the IC50 (in assay [1]; at EHMT1) was 0.1 to 1 µM each time.

Turning to `CNc1cc(C)nc(Nc2ccc(OC)c(-c3ccc4nc(C)[nH]c4c3)c2)n1` [Compound 155], the IC50 (in assay [1]; against EHMT1) was more than 10 µM in each case.

Take `CNc1cc(C)nc(Nc2ccc(OC)c(-c3ccc4cc(C)[nH]c4c3)c2)n1` [Compound 156]: the IC50 (in assay [1]; against EHMT1) was more than 10 µM throughout.

For `CNc1cc(C)nc(Nc2ccc(OC)c(-c3cc4ccncc4[nH]3)c2)n1` [Compound 157, N2-(4-methoxy-3-(1H-pyrrolo[2,3-c]pyridin-2-yl)phenyl)-N4,6-dimethylpyrimidine-2,4-diamine], the concentration for half-maximal inhibition (IC50) (in assay [1]; against EHMT1) was less than 0.1 µM each time.

For `CNc1cc(C)nc(Nc2ccc(OC)c(-c3cc4cnccc4n3C)c2)n1` [Compound 158], the half-maximal inhibitory concentration (IC50) in assay [1] is 0.1 to 1 µM; against EHMT1, less than 0.1 µM.

Take `CNCc1cn(-c2cc(Nc3nc(C)cc(NC)n3)ccc2OC)nn1` [Compound 159, N2-(4-methoxy-3-(4-((methylamino)methyl)-1H-1,2,3-triazol-1-yl)phenyl)-N4,6-dimethylpyrimidine-2,4-diamine]: the IC50 (in assay [1]; at EHMT1) was less than 0.1 µM throughout.

`CNc1cc(C)nc(Nc2ccc(OC)c(-n3cc(CN(C)C)c(C)n3)c2)n1` [Compound 160]: the concentration for half-maximal inhibition (IC50) (in assay [1]; on EHMT1) was less than 0.1 µM in each case.

For `CNc1nc2cc(-n3cc(CN(C)C)nn3)c(OC)cc2n1C` [Compound 163], the IC50 (in assay [1]; on EHMT1) was 1 to 10 µM each time.

Take `CNc1cc(C)nc(Nc2ccc(OC)c(-n3cc(C(C)NC)nn3)c2)n1` (stereo not shown) [Compound 164]: the IC50 (in assay [1]; at EHMT1) was 0.1 to 1 µM throughout.

With `CNc1cc(C)nc(Nc2ccc(OC)c(-n3cc(C(NC)C(F)(F)F)nn3)c2)n1` (stereo not shown) [Compound 165], the IC50 (in assay [1]; at EHMT1) was more than 10 µM each time.

With `CNc1cc(C)nc(Nc2ccc(OC)c(-n3cc(C(C)(C)NC)nn3)c2)n1` [Compound 166], the half-inhibitory concentration (IC50) was more than 10 µM in assay [1] and 1 to 10 µM on EHMT1.

Consider `CNc1ccnc(Nc2ccc(OC)c(-n3cnc(CN(C)C)c3)c2)n1` [Compound 170], for which the IC50 in assay [1] is 0.1 to 1 µM; against EHMT1, less than 0.1 µM.

Consider `CNc1ccnc(Nc2ccc(OC)c(-n3cc(CN(C)C)nn3)c2)n1` [Compound 171], for which the concentration for half-maximal inhibition (IC50) (in assay [1]; at EHMT1) was less than 0.1 µM throughout.

In the case of `CCNCc1cn(-c2cc(Nc3nccc(NC)n3)ccc2OC)nn1` [Compound 172], the 50% inhibitory concentration (IC50) (in assay [1]; at EHMT1) was 0.1 to 1 µM each time.

Consider `CNc1ccnc(Nc2ccc(OC)c(-n3cc(CNCC4CC4)nn3)c2)n1` [Compound 173], for which the half-inhibitory concentration (IC50) in assay [1] was 1 to 10 µM; against EHMT1 it was less than 0.1 µM.

`CNc1ccnc(Nc2ccc(OC)c(-c3cc4[nH]ncc4cn3)c2)n1` [Compound 174]: the half-inhibitory concentration (IC50) (in assay [1]; against EHMT1) was more than 10 µM each time.

As for `CNc1ccnc(Nc2ccc(OC)c(-c3cc4[nH]ccc4cn3)c2)n1` [Compound 175, N2-(4-methoxy-3-(1H-pyrrolo[3,2-c]pyridin-6-yl)phenyl)-N4-methylpyrimidine-2,4-diamine], the IC50 (in assay [1]; against EHMT1) was less than 0.1 µM each time.

For the molecule `CNc1ccnc(Nc2ccc(OC)c(-n3cc(C4CC4)nn3)c2)n1` [Compound 176], the figures for the half-maximal inhibitory concentration (IC50) (in assay [1]; on EHMT1) were 1 to 10 µM and 0.1 to 1 µM, respectively.

On to `CNc1ccnc(Nc2ccc(OC)c(-n3cc(C4COC4)nn3)c2)n1` [Compound 177], for which the IC50 in assay [1] is more than 10 µM; against EHMT1, 1 to 10 µM.

As for `CNc1ccnc(Nc2ccc(OC)c(-c3ccc4cc[nH]c4c3)c2)n1` [Compound 178], the IC50 (in assay [1]; against EHMT1) was more than 10 µM each time.

The term IC50 denotes the concentration needed to halve the response being measured.
